One series has as its system mouse. The settings on record: Fertility (Segment I), Oral, Gavage/Intubation, dose end: 1 generation.
The test system of the next series is rat. The settings on record: Sub-acute repeat dose toxicity; Injection; Intravenous; dose end: 7 day; group: systemic; systemic / hematology / platelet / platelet + systemic / organ weight / liver / absolute + systemic / pathology microscopic / liver / ….
The test system of the next series is rabbit. To be noted: Prenatal developmental toxicity study, new zealand white, Oral, Gavage/Intubation, dose end: 19 GD.
The mark [1] stands for this setting: group: maternal, reproductive / reproductive performance / mating / mating + reproductive / reproductive performance / precoital interval / precoital ….
[2] abbreviates: group: parental, systemic / in life observation / body weight / body weight gain + systemic / in life observation / food consumption / food consumption + ….
Setting [3] is: group: developmental, systemic / in life observation / body weight / fetal weight.
Where [4] appears, read: group: maternal, systemic / in life observation / body weight / body weight gain + systemic / in life observation / clinical signs / defecation + systemic / ….

SMILES strings stand for the structures. Bounds are passed on as bounds.

The term LOAEL denotes the lowest tested level that showed an adverse finding. The NOAEL is the highest tested level that showed no adverse finding.

As for `CCc1nn(CCO)c(CC)c1Oc1cc(C#N)cc(C#N)c1` [Lersivirine], in the series with mouse (setting [1]), the LEL was found to be 700 mg/kg/day, the LOAEL is greater than 700 mg/kg/day, the NEL was 200 mg/kg/day and the NOAEL is no less than 700 mg/kg/day. For the same compound, in the series with mouse (setting [2]), the LEL stood at 700 mg/kg/day, the LOAEL is greater than 700 mg/kg/day, the NEL was 200 mg/kg/day and the NOAEL is no less than 700 mg/kg/day. In addition, in the series with rat, the LOAEL was greater than 35 mg/kg/day, the NEL is less than 35 mg/kg/day and the NOAEL was no less than 35 mg/kg/day.

For `CCc1c(C(=O)NN2CCCCC2)nn(-c2ccc(Cl)cc2Cl)c1-c1ccc(Br)cc1` [Surinabant], in the series on rabbit (setting [3]), the LEL was 1 mg/kg/day, the LOAEL is greater than 20 mg/kg/day, the NEL is less than 1 mg/kg/day and the NOAEL is no less than 20 mg/kg/day. In the series on rabbit (setting [4]), the LEL worked out at 1 mg/kg/day, the LOAEL is greater than 20 mg/kg/day, the NEL is less than 1 mg/kg/day and the NOAEL was no less than 20 mg/kg/day.
